What all share (assay): NCI tumour cell line growth inhibition, 48 h
Experiment [1] has as its system MCF7.
The test system of experiment [2] is UACC-62.
Experiment [3] relates to M14.
Experiment [4] concerns OVCAR-3.
Experiment [5] relates to SNB-19.
The subject of experiment [6] is NCI-H522.
Experiment [7] relates to BT-549.
The subject of experiment [8] is PC-3.
Experiment [9] relates to OVCAR-5.
For experiment [10], the system named is Malme-3M.
The subject of experiment [11] is CAKI-1.
Experiment [12] deals with A549.
Experiment [13] concerns HCT-15.
Experiment [14] concerns OVCAR-4.
Experiment [15] relates to SNB-75.
The subject of experiment [16] is U-251.
Experiment [17] has as its system KM12.
Experiment [18] concerns 786-0.
Experiment [19] relates to T47D.

These results are taken from ChEMBL document CHEMBL1201862, “PubChem BioAssay data set” (2004).

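Exposure lasted 48 hours, with cells grown in 96-well plates and compounds tested at five concentrations. GI50: concentration for 50% inhibition of growth.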 Active and inactive are the calls of the source. No stated cut-off is given here; in the data, active = GI50 up to about 1.1 µM and inactive = higher. Where only a bound is given, the exact number is not on record here.

With `O=C(Nc1ccc([As](=O)(O)O)cc1)Nc1cccc(Cl)c1Cl`, the GI50 was > 100 µM (inactive) in experiment [1]; > 100 µM (inactive) in experiment [2]; > 100 µM (inactive) in experiment [3]; > 100 µM (inactive) in experiment [4]; 86.1 µM (inactive) in experiment [5]; > 100 µM (inactive) in experiment [6]. For the same compound, the GI50 was > 100 µM (inactive) in [7]; 83.9 µM (inactive) in [8]; > 100 µM (inactive) in [9]; > 100 µM (inactive) in experiment [10]; > 100 µM (inactive) in [11]; > 100 µM (inactive) in experiment [12]. In addition, the GI50 is more than 100 µM in experiment [13]; 18.7 µM (inactive) in experiment [14]; 21.7 µM (inactive) in [15]; 36.5 µM (inactive) in experiment [16]; > 100 µM (inactive) in [17]; 46.1 µM (inactive) in experiment [18].
For the compound `CN1C(=O)CC2CCCN2C1=O` (centres undefined), the GI50 in experiment [1], in experiment [2], in experiment [3], in [4], in experiment [5] and in experiment [6] was > 100 µM (inactive) in each case. Further, the GI50 is > 100 µM (inactive) in experiment [8]; > 100 µM (inactive) in experiment [9]; > 100 µM (inactive) in experiment [10]; > 100 µM (inactive) in experiment [11]; > 100 µM (inactive) in experiment [12]; more than 100 µM in experiment [13]. The GI50 in experiment [14], in [19], in [15], in experiment [16], in experiment [17] and in experiment [18] was > 100 µM (inactive) throughout.
Take `Oc1ccc2c(c1)OCC(O)(c1ccccc1O)C2` (centres undefined): the GI50 in [1], in experiment [2], in [3], in [4], in experiment [5] and in experiment [7] was > 100 µM (inactive) in each case. In addition, the GI50 in [8] was > 100 µM (inactive); in [9] it was > 100 µM (inactive); in experiment [11] it was > 100 µM (inactive); in experiment [13] it was more than 100 µM; in [14], > 100 µM (inactive); in experiment [19] it was > 100 µM (inactive). Further, the GI50 was 61.4 µM (inactive) in experiment [15], > 100 µM (inactive) in experiment [16], > 100 µM (inactive) in experiment [17] and > 100 µM (inactive) in experiment [18].
For the compound `COC(=O)[C@@H]1C[C@@H]2c3ccccc3N(S(=O)(=O)c3ccccc3)[C@@H]2N1C(=O)OC`, the GI50 in experiment [1], in experiment [2], in [4], in experiment [5], in [6] and in [7] was > 100 µM (inactive) throughout. Further, the GI50 was > 100 µM (inactive) in experiment [8]; 44 µM (inactive) in experiment [9]; > 100 µM (inactive) in [10]; > 100 µM (inactive) in experiment [11]; > 100 µM (inactive) in experiment [12]; more than 100 µM in experiment [13]. The GI50 in [14], in [15], in experiment [16], in experiment [17] and in experiment [18] was > 100 µM (inactive) each time.
As for `O=C(O)c1ccc2c(c1)Cc1cc([N+](=O)[O-])ccc1-2`, the GI50 in [1], in experiment [2], in [3], in experiment [4], in [5] and in experiment [6] was > 100 µM (inactive) in each case. In addition, the GI50 in experiment [7] was > 100 µM (inactive); in [9], > 100 µM (inactive); in experiment [10] it was > 100 µM (inactive); in experiment [11] it was 71.4 µM (inactive); in [12], > 100 µM (inactive); in experiment [13], more than 100 µM. Moreover, the GI50 in [14], in [19], in experiment [15], in experiment [16], in [17] and in [18] was > 100 µM (inactive) in each case.
Consider `CCOC(=O)N1c2ccccc2S(=O)(=O)c2ccccc21`, for which the GI50 in experiment [1], in experiment [2], in experiment [3], in experiment [4], in [5] and in experiment [6] was > 100 µM (inactive) in each case. Also, the GI50 in experiment [7] was > 100 µM (inactive); in experiment [8] it was > 100 µM (inactive); in [9], > 100 µM (inactive); in experiment [11], > 100 µM (inactive); in experiment [12], > 100 µM (inactive); in [13], more than 100 µM. Moreover, the GI50 is > 100 µM (inactive) in experiment [14]; 67.8 µM (inactive) in experiment [19]; > 100 µM (inactive) in experiment [16]; > 100 µM (inactive) in experiment [17]; > 100 µM (inactive) in [18].
`CCc1n[nH]c(=O)n1NC(=O)c1ccccc1C(=O)O`: the GI50 in [1], in experiment [2], in experiment [3], in experiment [4], in experiment [5] and in [6] was > 100 µM (inactive) throughout. Further, the GI50 was > 100 µM (inactive) in experiment [7]; > 100 µM (inactive) in [8]; > 100 µM (inactive) in experiment [9]; > 100 µM (inactive) in experiment [12]; more than 100 µM in experiment [13]; > 100 µM (inactive) in experiment [14]. The GI50 in experiment [15], in experiment [16], in [17] and in experiment [18] was > 100 µM (inactive) in each case.
Take `O=c1oc2ccccc2cc1-c1nnc(-c2ccccc2)s1`: the GI50 was 7.67 µM (inactive) in [1]; > 100 µM (inactive) in experiment [2]; > 56.1 µM (inactive) in [3]; 14.5 µM (inactive) in experiment [4]; 41.6 µM (inactive) in experiment [5]; 13.7 µM (inactive) in experiment [6]. The GI50 was > 68.7 µM (inactive) in experiment [7]; > 76.6 µM (inactive) in experiment [8]; > 100 µM (inactive) in experiment [9]; > 100 µM (inactive) in experiment [10]; > 64.9 µM (inactive) in [11]; 38.5 µM (inactive) in experiment [12]. Moreover, the GI50 in experiment [13] is 6.73 µM; in [14], > 68.2 µM (inactive); in experiment [15] it was 15.5 µM (inactive); in [16], 12.6 µM (inactive); in experiment [17], 4.61 µM (inactive); in experiment [18], 17.3 µM (inactive).
For `Nc1c(/C=C/c2cc3cc(C4=NCCN4)ccc3o2)[nH]c2cc(C3=NCCN3)ccc12`, the GI50 was 40.7 µM (inactive) in experiment [1]; 38 µM (inactive) in [2]; 38.5 µM (inactive) in experiment [3]; 35.6 µM (inactive) in experiment [4]; 66.2 µM (inactive) in [5]; 45.9 µM (inactive) in experiment [6]. Besides, the GI50 in experiment [7] was 43.6 µM (inactive); in experiment [8], 34.6 µM (inactive); in [9], > 100 µM (inactive); in experiment [11] it was 38.3 µM (inactive); in [12] it was 41.5 µM (inactive); in experiment [13], 41.6 µM. In addition, the GI50 was 47.1 µM (inactive) in experiment [14]; 46.5 µM (inactive) in experiment [19]; 63.5 µM (inactive) in experiment [15]; 38.3 µM (inactive) in experiment [16]; 34.4 µM (inactive) in experiment [17]; 37.3 µM (inactive) in experiment [18].
On to `Nc1ccc2c(=O)cc(-c3ccc(Br)s3)[nH]c2n1`, for which the GI50 was 2.15 µM (inactive) in experiment [1]; 3.02 µM (inactive) in experiment [2]; 3.12 µM (inactive) in [3]; 3.18 µM (inactive) in experiment [4]; 4.63 µM (inactive) in [5]; 1.42 µM (inactive) in experiment [6]. In addition, the GI50 is 2.74 µM (inactive) in [8]; 11.6 µM (inactive) in experiment [9]; 12.4 µM (inactive) in experiment [10]; 4.46 µM (inactive) in experiment [11]; 5.5 µM (inactive) in experiment [12]; 2.26 µM in experiment [13]. The GI50 was > 56.6 µM (inactive) in [14]; 4.16 µM (inactive) in [19]; 2.47 µM (inactive) in experiment [15]; 3.61 µM (inactive) in [16]; 0.673 µM (active) in experiment [17]; 4.02 µM (inactive) in [18].
As to `O=C(OC1C#CCSCC#C/C=C\1)c1cnc2ccccc2n1` (centres undefined), the GI50 in [1], in [2], in experiment [3], in experiment [4], in experiment [5] and in experiment [6] was > 100 µM (inactive) throughout. Moreover, the GI50 in experiment [7] was > 100 µM (inactive); in experiment [8] it was > 100 µM (inactive); in experiment [9], > 100 µM (inactive); in experiment [10], > 100 µM (inactive); in experiment [13], more than 100 µM; in experiment [14], > 100 µM (inactive). Besides, the values for the GI50 in [15], in experiment [16] and in experiment [18] were > 100 µM (inactive), > 100 µM (inactive) and 0.461 µM (active), respectively.
Take `O=C1Cc2c([nH]c3ccc(Br)cc23)-c2cc(Br)ccc2N1`: the GI50 in experiment [1], in [2], in experiment [3], in experiment [5], in experiment [7] and in experiment [8] was > 100 µM (inactive) in each case. Further, the GI50 was > 100 µM (inactive) in experiment [9]; > 100 µM (inactive) in experiment [11]; > 100 µM (inactive) in experiment [12]; more than 100 µM in experiment [13]; > 100 µM (inactive) in experiment [14]; > 100 µM (inactive) in experiment [19]. Further, the GI50 in experiment [16], in experiment [17] and in experiment [18] was > 100 µM (inactive) each time.
